Measured values taken from ChEMBL document CHEMBL1201861, “Genomics of Drug Sensitity in Cancer screening data, Wellcome Trust Sanger Institute”.

What was measured:
Assay in all cases: cells
Details in all cases: Homo sapiens
[1] = tested on: HuTu80; assay type: functional, cell-based, HUTU-80;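 also: growth inhibition of HuTu80 human cells, determined with a cell viability readout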
Description: SANGER: Inhibition of human HUTU-80 cell growth in a cell viability assay.

[2] = tested on: NCI-H1155; assay type: functional, cell-based;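 also: cell growth inhibition measured by a viability assay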
Description: SANGER: Inhibition of human NCI-H1155 cell growth in a cell viability assay.

[3] = tested on: HC-1; assay type: functional, cell-based;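 also: growth inhibition of HC-1 cells measured by a cell viability assay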
Description: SANGER: Inhibition of human HC-1 cell growth in a cell viability assay.

[4] = tested on: KMOE-2; assay type: functional, cell-based;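 also: growth inhibition of human KMOE-2 cells, read out with a cell viability assay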
Description: SANGER: Inhibition of human KMOE-2 cell growth in a cell viability assay.

[5] = tested on: Lu-65; assay type: functional, cell-based;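 also: growth inhibition of Lu-65 cancer cells, read out by a cell viability assay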
Description: SANGER: Inhibition of human LU-65 cell growth in a cell viability assay.

[6] = tested on: KINGS-1; assay type: functional, cell-based;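 also: cell viability assay measuring suppression of KINGS-1 cell growth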
Description: SANGER: Inhibition of human KINGS-1 cell growth in a cell viability assay.

[7] = tested on: D-502MG; assay type: functional, cell-based
Description: SANGER: Inhibition of human D-502MG cell growth in a cell viability assay.

[8] = tested on: SW 962; assay type: functional, cell-based;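 also: growth inhibition of human SW962 cells, read out by a cell viability assay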
Description: SANGER: Inhibition of human SW962 cell growth in a cell viability assay.

[9] = tested on: SW982; assay type: functional, cell-based;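 also: growth inhibition of SW982 cells, read out with a cell viability assay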
Description: SANGER: Inhibition of human SW982 cell growth in a cell viability assay.

[10] = tested on: COLO-668; assay type: functional, cell-based
Description: SANGER: Inhibition of human COLO-668 cell growth in a cell viability assay.

[11] = tested on: KURAMOCHI; assay type: functional, cell-based;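 also: growth inhibition of KURAMOCHI cells, read out with a cell viability assay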
Description: SANGER: Inhibition of human KURAMOCHI cell growth in a cell viability assay.

[12] = tested on: NEC8; assay type: functional, cell-based;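 also: growth inhibition of human NEC8 cells, read out by a cell viability assay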
Description: SANGER: Inhibition of human NEC8 cell growth in a cell viability assay.

[13] = tested on: NOMO-1; assay type: functional, cell-based;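 also: growth inhibition of human NOMO-1 cells measured by a cell viability assay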
Description: SANGER: Inhibition of human NOMO-1 cell growth in a cell viability assay.

[14] = tested on: SF-126; assay type: functional, cell-based;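 also: growth inhibition of human SF126 cells, read out with a cell viability assay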
Description: SANGER: Inhibition of human SF126 cell growth in a cell viability assay.

[15] = tested on: RPMI-8866; assay type: functional, cell-based
Description: SANGER: Inhibition of human RPMI-8866 cell growth in a cell viability assay.

[16] = tested on: SNU-C2B; assay type: functional, cell-based;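 also: cell viability readout used to measure compound-driven suppression of SNU-C2B cell proliferation, IC50 marking half-maximal growth inhibition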
Description: SANGER: Inhibition of human SNU-C2B cell growth in a cell viability assay.

[17] = tested on: EW-1; assay type: functional, cell-based;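 also: growth inhibition of the human EW-1 cell line, read out by a cell viability assay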
Description: SANGER: Inhibition of human EW-1 cell growth in a cell viability assay.

[18] = tested on: KLE; assay type: functional, cell-based;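 also: growth inhibition of human KLE cells, read out with a cell viability assay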
Description: SANGER: Inhibition of human KLE cell growth in a cell viability assay.

[19] = tested on: SK-LMS-1; assay type: functional, cell-based;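 also: growth inhibition of human SK-LMS-1 cells, read out with a cell viability assay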
Description: SANGER: Inhibition of human SK-LMS-1 cell growth in a cell viability assay.

[20] = tested on: NB6; assay type: functional, cell-based;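 also: growth inhibition of NB6 cells, read out by a cell viability assay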
Description: SANGER: Inhibition of human NB6 cell growth in a cell viability assay.

[21] = tested on: ES5; assay type: functional, cell-based;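 also: growth inhibition of human ES5 cells, read out by a cell viability assay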
Description: SANGER: Inhibition of human ES5 cell growth in a cell viability assay.

[22] = tested on: TK-10; assay type: functional, cell-based;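 also: growth inhibition of TK-10 cells, read out in a cell viability assay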
Description: SANGER: Inhibition of human TK10 cell growth in a cell viability assay.

[23] = tested on: LAN-6; assay type: functional, cell-based;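 also: growth inhibition of LAN-6 cells, determined with a cell viability assay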
Description: SANGER: Inhibition of human LAN-6 cell growth in a cell viability assay.

[24] = tested on: MHH-NB-11; assay type: functional, cell-based;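 also: growth inhibition of human MHH-NB-11 cells, read out by a cell viability assay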
Description: SANGER: Inhibition of human MHH-NB-11 cell growth in a cell viability assay.

[25] = tested on: SK-NEP-1; assay type: functional, cell-based;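 also: growth inhibition of human SK-NEP-1 cells, read out by a cell viability assay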
Description: SANGER: Inhibition of human SK-NEP-1 cell growth in a cell viability assay.

[26] = tested on: MSTO-211H; assay type: functional, cell-based
Description: SANGER: Inhibition of human MSTO-211H cell growth in a cell viability assay.

[27] = tested on: BB30-HNC; assay type: functional, cell-based;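 also: growth inhibition of the cultured cell line, read out by a cell viability assay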
Description: SANGER: Inhibition of human BB30-HNC cell growth in a cell viability assay.

[28] = tested on: Mo; assay type: functional, cell-based
Description: SANGER: Inhibition of human Mo-T cell growth in a cell viability assay.

[29] = tested on: LU-134-A; assay type: functional, cell-based
Description: SANGER: Inhibition of human LU-134-A cell growth in a cell viability assay.

[30] = tested on: ONS-76; assay type: functional, cell-based;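 also: growth inhibition of human ONS-76 cells, read out with a cell viability assay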
Description: SANGER: Inhibition of human ONS-76 cell growth in a cell viability assay.

[31] = tested on: TGBC24TKB; assay type: functional, cell-based;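 also: growth inhibition of human TGBC24TKB cells, read out with a cell viability assay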
Description: SANGER: Inhibition of human TGBC24TKB cell growth in a cell viability assay.

[32] = tested on: GCIY; assay type: functional, cell-based;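 also: growth inhibition of the human GCIY cell line, read out by a cell viability assay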
Description: SANGER: Inhibition of human GCIY cell growth in a cell viability assay.

[33] = tested on: KY821; assay type: functional, cell-based;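 also: growth inhibition of human KY821 cells, read out by a cell viability assay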
Description: SANGER: Inhibition of human KY821 cell growth in a cell viability assay.

[34] = tested on: CW-2; assay type: functional, cell-based;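 also: growth inhibition of CW-2 cells, read out by a cell viability assay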
Description: SANGER: Inhibition of human CW-2 cell growth in a cell viability assay.

[35] = tested on: 8-MG-BA; assay type: functional, cell-based;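 also: growth inhibition of 8-MG-BA cells, read out with a cell viability assay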
Description: SANGER: Inhibition of human 8-MG-BA cell growth in a cell viability assay.

[36] = tested on: NCI-H69; assay type: functional, cell-based;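 also: growth inhibition of the cell line, read out with a cell viability assay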
Description: SANGER: Inhibition of human NCI-H69 cell growth in a cell viability assay.

[37] = tested on: NOS-1; assay type: functional, cell-based;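 also: growth inhibition of the human NOS-1 cell line, read out with a cell viability assay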
Description: SANGER: Inhibition of human NOS-1 cell growth in a cell viability assay.

[38] = tested on: LS-1034; assay type: functional, cell-based
Description: SANGER: Inhibition of human LS-1034 cell growth in a cell viability assay.

[39] = tested on: NCI-H747; assay type: functional, cell-based;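 also: growth inhibition of human NCI-H747 cells, read out by a cell viability assay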
Description: SANGER: Inhibition of human NCI-H747 cell growth in a cell viability assay.

[40] = tested on: TE-8; assay type: functional, cell-based;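 also: growth inhibition of TE-8 cells, measured with a cell viability readout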
Description: SANGER: Inhibition of human TE-8 cell growth in a cell viability assay.

[41] = tested on: Ramos-2G6-4C10; assay type: functional, cell-based;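 also: growth inhibition of the cell line, measured by a cell viability read-out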
Description: SANGER: Inhibition of human Ramos-2G6-4C10 cell growth in a cell viability assay.

[42] = tested on: U-87 MG; assay type: functional, cell-based, U-87MG ATCC;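 also: growth inhibition of the cells measured with a viability assay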
Description: SANGER: Inhibition of human U-87-MG cell growth in a cell viability assay.

[43] = tested on: DOHH-2; assay type: functional, cell-based;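 also: growth inhibition of human DOHH-2 cells, read out with a cell viability assay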
Description: SANGER: Inhibition of human DOHH-2 cell growth in a cell viability assay.

[44] = tested on: KARPAS-45; assay type: functional, cell-based;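 also: inhibition of cell line growth, read out through a viability assay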
Description: SANGER: Inhibition of human KARPAS-45 cell growth in a cell viability assay.

[45] = tested on: KS-1; assay type: functional, cell-based;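 also: growth inhibition of KS-1 cells, read out with a cell viability assay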
Description: SANGER: Inhibition of human KS-1 cell growth in a cell viability assay.

[46] = tested on: MLMA; assay type: functional, cell-based;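 also: growth inhibition of MLMA cells (human), determined through a cell viability readout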
Description: SANGER: Inhibition of human MLMA cell growth in a cell viability assay.

[47] = tested on: LXF-289 cell line; assay type: functional, cell-based
Description: SANGER: Inhibition of human LXF-289 cell growth in a cell viability assay.

[48] = tested on: LNCaP-Clone-FGC; assay type: functional, cell-based
Description: SANGER: Inhibition of human LNCaP-Clone-FGC cell growth in a cell viability assay.

[49] = tested on: KARPAS-299; assay type: functional, cell-based
Description: SANGER: Inhibition of human KARPAS-299 cell growth in a cell viability assay.

[50] = tested on: C8166; assay type: functional, cell-based;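 also: growth inhibition of human C8166 cells measured by a cell viability assay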
Description: SANGER: Inhibition of human C8166 cell growth in a cell viability assay.

[51] = tested on: P30-OHK; assay type: functional, cell-based;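 also: growth inhibition of the P30-OHK cell line, read out with a cell viability assay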
Description: SANGER: Inhibition of human P30-OHK cell growth in a cell viability assay.

[52] = tested on: OMC-1; assay type: functional, cell-based;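 also: growth inhibition of the OMC-1 cell line, measured by a cell viability assay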
Description: SANGER: Inhibition of human OMC-1 cell growth in a cell viability assay.

[53] = tested on: IA-LM; assay type: functional, cell-based;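 also: cell viability assay measuring growth inhibition of human IA-LM cells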
Description: SANGER: Inhibition of human IA-LM cell growth in a cell viability assay.

[54] = tested on: SNU1; assay type: functional, cell-based;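 also: growth inhibition of human NCI-SNU-1 cells, measured with a cell viability assay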
Description: SANGER: Inhibition of human NCI-SNU-1 cell growth in a cell viability assay.

[55] = tested on: DJM-1; assay type: functional, cell-based;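 also: growth inhibition of human DJM-1 cells, read out by a cell viability assay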
Description: SANGER: Inhibition of human DJM-1 cell growth in a cell viability assay.

[56] = tested on: LS-513; assay type: functional, cell-based
Description: SANGER: Inhibition of human LS-513 cell growth in a cell viability assay.

[57] = tested on: MHH-PREB-1; assay type: functional, cell-based;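 also: cell viability assay measuring inhibition of proliferation of human MHH-PREB-1 cells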
Description: SANGER: Inhibition of human MHH-PREB-1 cell growth in a cell viability assay.

[58] = tested on: HCE-T; assay type: functional, cell-based;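 also: cell viability assay read-out, reporting inhibition of HCE-T cell growth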
Description: SANGER: Inhibition of human HCE-T cell growth in a cell viability assay.

[59] = tested on: HOP-62; assay type: functional, cell-based;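 also: cell growth inhibition determined with a viability assay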
Description: SANGER: Inhibition of human HOP-62 cell growth in a cell viability assay.

[60] = tested on: QIMR-WIL; assay type: functional, cell-based;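 also: growth inhibition of QIMR-WIL cells, read out with a cell viability assay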
Description: SANGER: Inhibition of human QIMR-WIL cell growth in a cell viability assay.

[61] = tested on: CCRF-CEM; assay type: functional, cell-based
Description: SANGER: Inhibition of human CCRF-CEM cell growth in a cell viability assay.

[62] = tested on: A704; assay type: functional, cell-based
Description: SANGER: Inhibition of human A704 cell growth in a cell viability assay.

[63] = tested on: HH; assay type: functional, cell-based
Description: SANGER: Inhibition of human HH cell growth in a cell viability assay.

[64] = tested on: EKVX; assay type: functional, cell-based
Description: SANGER: Inhibition of human EKVX cell growth in a cell viability assay.

[65] = tested on: HCC2218; assay type: functional, cell-based
Description: SANGER: Inhibition of human HCC2218 cell growth in a cell viability assay.

Measured: IC50

CCNc1cc(N[C@H]2CC[C@@H](O)CC2)nc(Nc2ccc3c(ccn3Cc3ccccc3)c2)n1
3.26 µM: [37]
3.46 µM: [43]
4.6 µM: [27]
4.3 µM: [45]
> 5.12 µM: all other assays above

C/C(O)=C(\C#N)C(=O)Nc1cc(Br)ccc1Br
not listed: [63]
> 16 µM: all other assays above
